In ChEMBL document CHEMBL1759866, “Discovery of 2,4-bis-arylamino-1,3-pyrimidines as insulin-like growth factor-1 receptor (IGF-1R) inhibitors” (Bioorg Med Chem Lett, 2011):
Each block holds one compound with its values, some of them ahead of it.

How the values were obtained:
[1] = tested on: Rattus norvegicus; assay: In vivo clearance in Sprague-Dawley rat
[2] = Clearance in Sprague-Dawley rat at 1 mg/kg, iv administered as solution in DSMO and 5 mg/kg, po administered as suspension in 1% Tween 80 and 1% HPMC in water after 12 to 24 hrs by LC-MS analysis; assay type: ADME, organism-based; conditions: in vivo
[3] = Volume of distribution at steady state in Sprague-Dawley rat at 1 mg/kg, iv administered as solution in DSMO and 5 mg/kg, po administered as suspension in 1% Tween 80 and 1% HPMC in water after 12 to 24 hrs by LC-MS analysis; assay type: ADME, organism-based; conditions: in vivo, read-out: Vdss
[4] = Half life in Sprague-Dawley rat at 1 mg/kg, iv administered as solution in DSMO and 5 mg/kg, po administered as suspension in 1% Tween 80 and 1% HPMC in water after 12 to 24 hrs by LC-MS analysis; assay type: ADME, organism-based; conditions: in vivo
[5] = Oral bioavailability in Sprague-Dawley rat at 5 mg/kg administered as suspension in 1% Tween 80 and 1% HPMC in water after 12 to 24 hrs by LC-MS analysis; assay type: ADME, organism-based; conditions: in vivo
[6] = Clearance in CD1 mouse Calu6 tumor xenograft model at 1 mg/kg, iv administered as solution in DMSO and 5 mg/kg, po administered as suspension in 20% captisol in PBS; assay type: ADME, organism-based; conditions: in vivo
[7] = Volume of distribution at steady state in CD1 mouse Calu6 tumor xenograft model at 1 mg/kg, iv administered as solution in DMSO and 5 mg/kg, po administered as suspension in 20% captisol in PBS; assay type: ADME, organism-based; conditions: in vivo, read-out: Vdss
[8] = Half life in CD1 mouse Calu6 tumor xenograft model at 1 mg/kg, iv administered as solution in DMSO and 5 mg/kg, po administered as suspension in 20% captisol in PBS; assay type: ADME, organism-based; conditions: in vivo
[9] = Oral bioavailability in CD1 mouse Calu6 tumor xenograft model at 5 mg/kg administered as suspension in 20% captisol in PBS; assay type: ADME, organism-based; conditions: in vivo
[10] = Cmax in CD1 mouse Calu6 tumor xenograft model at 30 mg/kg, po administered twice daily as suspension in 1% Tween 80 and 1% HPMC in water; assay type: ADME, organism-based; parameters: dose 30 mg/kg, route oral; conditions: in vivo
[11] = Cmax in CD1 mouse Calu6 tumor xenograft model at 100 mg/kg, po administered twice daily as suspension in 1% Tween 80 and 1% HPMC in water; assay type: ADME, organism-based; parameters: dose 100 mg/kg, route oral; conditions: in vivo
[12] = Cmax in tumor of CD1 mouse Calu6 tumor xenograft model at 30 mg/kg, po administered twice daily as suspension in 1% Tween 80 and 1% HPMC in water; assay type: ADME, organism-based, Neoplasm; parameters: dose 30 mg/kg, route oral
[13] = Cmax in tumor of CD1 mouse Calu6 tumor xenograft model at 100 mg/kg, po administered twice daily as suspension in 1% Tween 80 and 1% HPMC in water; assay type: ADME, organism-based, Neoplasm; parameters: dose 100 mg/kg, route oral
[14] = AUC in tumor of CD1 mouse Calu6 tumor xenograft model at 30 mg/kg, po administered twice daily as suspension in 1% Tween 80 and 1% HPMC in water; assay type: ADME, organism-based, Neoplasm; parameters: dose 30 mg/kg, route oral
[15] = AUC in tumor of CD1 mouse Calu6 tumor xenograft model at 100 mg/kg, po administered twice daily as suspension in 1% Tween 80 and 1% HPMC in water; assay type: ADME, organism-based, Neoplasm; parameters: dose 100 mg/kg, route oral
[16] = in vivo; conditions: CD1, mouse, tumor and plasma, po, 30 mg/kg
[17] = in vivo; conditions: CD1, mouse, tumor and plasma, po, 100 mg/kg
[18] = Clearance in Sprague-Dawley rat at 2 mg/kg, iv administered as solution in DSMO and 5 mg/kg, po administered as suspension in 1% Tween 80 and 1% HPMC in water after 12 to 24 hrs by LC-MS analysis; assay type: ADME, organism-based; conditions: in vivo
[19] = Volume of distribution at steady state in Sprague-Dawley rat at 2 mg/kg, iv administered as solution in DSMO and 5 mg/kg, po administered as suspension in 1% Tween 80 and 1% HPMC in water after 12 to 24 hrs by LC-MS analysis; assay type: ADME, organism-based; conditions: in vivo, read-out: Vdss
[20] = Half life in Sprague-Dawley rat at 2 mg/kg, iv administered as solution in DSMO and 5 mg/kg, po administered as suspension in 1% Tween 80 and 1% HPMC in water after 12 to 24 hrs by LC-MS analysis; assay type: ADME, organism-based; conditions: in vivo
[21] = Clearance in CD1 mouse Calu6 tumor xenograft model at 12 mg/kg, iv administered as solution in aqueous propylene glycol and 30 mg/kg, po administered as suspension in 20% captisol in PBS of pH 5.73; assay type: ADME, organism-based; conditions: in vivo
[22] = Volume of distribution at steady state in CD1 mouse Calu6 tumor xenograft model at 12 mg/kg, iv administered as solution in aqueous propylene glycol and 30 mg/kg, po administered as suspension in 20% captisol in PBS of pH 5.73; assay type: ADME, organism-based; conditions: in vivo, read-out: Vdss
[23] = Half life in CD1 mouse Calu6 tumor xenograft model at 12 mg/kg, iv administered as solution in aqueous propylene glycol and 30 mg/kg, po administered as suspension in 20% captisol in PBS of pH 5.73; assay type: ADME, organism-based; conditions: in vivo
[24] = Cmax in CD1 mouse Calu6 tumor xenograft model at 30 mg/kg, po administered twice daily as suspension in 20% captisol in PBS of pH 3.5; assay type: ADME, organism-based; parameters: dose 30 mg/kg, route oral; conditions: in vivo
[25] = Cmax in CD1 mouse Calu6 tumor xenograft model at 100 mg/kg, po administered twice daily as suspension in 20% captisol in PBS of pH 3.5; assay type: ADME, organism-based; parameters: dose 100 mg/kg, route oral; conditions: in vivo
[26] = Cmax in tumor of CD1 mouse Calu6 tumor xenograft model at 30 mg/kg, po administered twice daily as suspension in 20% captisol in PBS of pH 3.5; assay type: ADME, organism-based, Neoplasm; parameters: dose 30 mg/kg, route oral
[27] = Cmax in tumor of CD1 mouse Calu6 tumor xenograft model at 100 mg/kg, po administered twice daily as suspension in 20% captisol in PBS of pH 3.5; assay type: ADME, organism-based, Neoplasm; parameters: dose 100 mg/kg, route oral
[28] = AUC in tumor of CD1 mouse Calu6 tumor xenograft model at 30 mg/kg, po administered twice daily as suspension in 20% captisol in PBS of pH 3.5; assay type: ADME, organism-based, Neoplasm; parameters: dose 30 mg/kg, route oral
[29] = AUC in tumor of CD1 mouse Calu6 tumor xenograft model at 100 mg/kg, po administered twice daily as suspension in 20% captisol in PBS of pH 3.5; assay type: ADME, organism-based, Neoplasm; parameters: dose 100 mg/kg, route oral
[30] = in vivo; conditions: CD1, mouse, tumor and plasma, po, 30 mg/kg, pH 3.5
[31] = in vivo; conditions: CD1, mouse, tumor and plasma, po, 100 mg/kg, pH 3.5

CL [1]: 48.3 mL/min/kg
Structure (SMILES): COc1ccc(Nc2nccc(Nc3cnc4ccccc4c3)n2)cc1Cl

CL [1]: 48.3 mL/min/kg
Structure (SMILES): COc1cc(Nc2nccc(Nc3cnc4ccccc4c3)n2)cc(OC)c1

clearance [2]: 6.67 mL/min/kg | Vd [3]: 0.2 L/kg | half-life [4]: 1.7 h | bioavailability [5]: 33% | clearance [6]: 26.7 mL/min/kg | Vd [7]: 0.3 L/kg | half-life [8]: 1.7 h | bioavailability [9]: 63% | Cmax [10]: 5340 nM | Cmax [11]: 13400 nM | Cmax [12]: 525 nM | Cmax [13]: 2720 nM | AUC [14]: 0.989 µg·h/mL | AUC [15]: 5.17 µg·h/mL | Kp [16]: 0.129 | Kp [17]: 0.18
Structure (SMILES): COc1cc(Nc2nccc(Nc3cnc4ccccc4c3)n2)cc(OC)c1OC

CL [1]: 31.7 mL/min/kg
Structure (SMILES): COc1cc(Nc2nccc(Nc3cnc4ccccc4c3)n2)ccc1OCCCN1CCCCC1

CL [1]: 40 mL/min/kg
Structure (SMILES): COc1cc(Nc2nccc(Nc3ccc4[nH]ncc4c3)n2)cc(OC)c1OC

clearance [2]: 20 mL/min/kg | Vd [3]: 1.1 L/kg | half-life [4]: 1.3 h | bioavailability [5]: 16% | clearance [6]: 107 mL/min/kg | Vd [7]: 1.8 L/kg | half-life [8]: 2.3 h | bioavailability [9]: 56%
Structure (SMILES): COc1cc(Nc2nccc(Nc3ccc4ncccc4c3)n2)cc(OC)c1OC

CL [1]: 40 mL/min/kg
Structure (SMILES): COc1cc(Nc2nccc(Nc3cc4ccccc4cn3)n2)cc(OC)c1OC

CL [1]: 48.3 mL/min/kg
Structure (SMILES): COc1cc(Nc2nccc(Nc3cnc4ccccc4c3)n2)ccc1N1CCOCC1

CL [1]: 40 mL/min/kg
Structure (SMILES): COc1cc(Nc2nccc(Nc3ccc4ccccc4c3)n2)cc(OC)c1OC

clearance [18]: 10 mL/min/kg | Vd [19]: 9.5 L/kg | half-life [20]: 12.1 h | bioavailability [5]: 9% | clearance [21]: 98.3 mL/min/kg | Vd [22]: 28.1 L/kg | half-life [23]: 5.3 h | Cmax [24]: 180 nM | Cmax [25]: 2220 nM | Cmax [26]: 1360 nM | Cmax [27]: 143000 nM | AUC [28]: 13.3 µg·h/mL | AUC [29]: 1120 µg·h/mL | Kp [30]: 11.6 | Kp [31]: 81.9
Structure (SMILES): c1ccc2ncc(Nc3ccnc(Nc4ccc(OCCCN5CCCCC5)cc4)n3)cc2c1
